The values below come from US20230233543A1, “COMPOUNDS FOR THE TREATMENT OF COVID-19” (Dompe' Farmaceutici SPA, priority 2020, published 2023).

Test [1] addresses SARS-CoV-2 3CL-Pro (Severe acute respiratory syndrome coronavirus 2, UniProt P0DTD1). In words: biochemical. Conditions: read-out: 3CL-Pro Inhibition [%].
Test [2] relates to SARS-CoV-2 (BetaCov/Belgium/GHB-03021/2020) in VeroE6-EGFP cells. In words: microbe, parasite or virus in culture. It counts as cell-based. Conditions: for pIC50: Severe acute respiratory syndrome coronavirus 2.
In test [3] the target is SARS-CoV-2 PLpro (Severe acute respiratory syndrome coronavirus 2, UniProt P0DTD1). In words: PLpro enzymatic assay (ISG15-AMC substrate). In kind it is biochemical. Conditions: read-out: PL_Pro Inhibition [%].

pIC50: −log10 of the molar value. Counter-ions that a name gives are not always drawn. Like-named read-outs stand apart in the source and are kept apart here.

Take `Nc1ccc2cc3ccc(N)cc3nc2c1` [Proflavine, 3,6-diaminoacridine]: the inhibition at 20 µM in test [1] (primary screen at 20 µM, without DTT, read at 15 min, normalized to zinc pyrithione (100%) and DMSO (0%)) worked out at 89.9%. Also, in test [2], the “% Confluence” value is listed as 8.56% and the “% Inhibition” value is 208.4%.
As for `CC(C)c1ccc2c(c1)C(N1CCN(CCO)CC1)Cc1ccc(F)cc1S2` (centres unmarked) [Isofloxythepin, 2-[4-(9-fluoro-3-propan-2-yl-5,6-dihydrobenzo[b][1]benzothiepin-5-yl)piperazin-1-yl]ethanol], in test [2], the “% Confluence” value worked out at 67.67% and the “% Inhibition” value amounted to 35.39%. For the same molecule, the negative logarithm of the IC50 (pIC50) in test [2] (read-out: IC50) was 3.97.
Turning to `Cc1cc(O)c2c(=O)c3c(O)cc(O)c4c5c(O)cc(O)c6c(=O)c7c(O)cc(C)c8c1c2c(c34)c(c78)c65` [Hypericin, 1,3,4,6,8,13-Hexahydroxy-10,11-dimethylphenanthro[1,10,9,8-opqra]perylene-7,14-dione], the inhibition at 20 µM in test [1] came to 45.7%. In addition, the inhibition at 20 µM in test [3] came to 40.1%. Also, in test [2], the “% Confluence” value is given as 20.85% and the pIC50 was 6.60.
For the molecule `O=C(c1ccc(OCCN2CCCCC2)cc1)c1c(-c2ccc(O)cc2)sc2cc(O)ccc12` [Raloxifen hydrochloride, 1-[6-Hydroxy-2-(4-hydroxyphenyl)benzo[b]thien-3-yl]-1-[4-[2-(1-piperidinyl)ethoxy]phenyl]methanone], in test [2], the “% Confluence” value is given as 45.26% and the “% Inhibition” value was 70.75%. Further, in test [2] (read-out: IC50), the pIC50 is 5.01.
With `CC(C)(Sc1cc(C(C)(C)C)c(O)c(C(C)(C)C)c1)Sc1cc(C(C)(C)C)c(OC(=O)CCC(=O)O)c(C(C)(C)C)c1` [Succinobucol, Succinic acid 2,6-di-tert-butyl-4-[1-(3,5-di-tert-butyl-4-hydroxyphenylsulfanyl)-1-methylethylsulfanyl]phenyl monoester], in test [2], the “% Confluence” value is 18.73% and the “% Inhibition” value was determined as 37.53%.
For the molecule `CC(C)(C)NCc1ccc(Nc2ccnc3cc(Cl)ccc23)cc1O` [N-tert-Butylisoquine, 2-[(tert-butylamino)methyl]-5-[(7-chloroquinolin-4-yl)amino]phenol], in test [2], the “% Confluence” value is reported as 77.86% and the “% Inhibition” value is 44.99%.
As for `c1ccc2c(c1)Sc1ccccc1N2C[C@H]1CN2CCC1CC2` (stereo in doubt) [Mequitazine, 10-(Quinuclidin-3-ylmethyl)-10H-phenothiazine], in test [2], the “% Confluence” value is reported as 61.74% and the “% Inhibition” value was 62.09%. In test [2] (read-out: IC50), the negative-log IC50 (pIC50) is 5.22.

A word on the inhibition: it is the share of the control response that was lost under treatment. What is called % Inhibition is the drop in the measured response relative to a control, in per cent. The term pIC50 denotes the negative decadic logarithm of the IC50, by convention in mol/L.
